Measured values reported in patent US20160272613A1, “Pyridazinone Derivatives and their use as Herbicides” (BAYER CROPSCIENCE AKTIENGESELLSCHAFT, priority 2013, published 2016).

Assays:
Format in all cases: in vivo
[1] = system: Abutilon theophrasti; test: Pre-emergence herbicidal action against harmful plants; details: 320 g/ha, visual score after 3 weeks vs untreated controls
Description: (§1) Seeds of monocotyledonous and dicotyledonous weed plants and crop plants are laid out in wood-fiber pots in sandy loam and covered with soil. The compounds of the invention, formulated in the form of wettable powders (WP) or as emulsion concentrates (EC), are then applied to the surface of the covering soil in the form of an aqueous suspension or emulsion at a water application rate equating to 600 to 800 l/ha, with addition of 0.2% wetting agent. After the treatment, the pots are placed in a greenhouse and kept under good growth conditions for the trial plants. The damage to the trial plants is scored visually after a trial duration of 3 weeks by comparison with untreated controls (herbicidal activity in percent (%): 100% efficacy=the plants have died, 0% efficacy=like control plants). In this trial, for example, compound no.

[2] = system: Amaranthus retroflexus; test: as above; details: 320 g/ha, visual score after 3 weeks vs untreated controls
Description: as §1

[3] = system: Cyperus esculentus; test: as above; details: 320 g/ha, visual score after 3 weeks vs untreated controls
Description: as §1

[4] = system: Ipomoea purpurea; test: as above; details: 320 g/ha, visual score after 3 weeks vs untreated controls
Description: as §1

[5] = system: Stellaria media; test: as above; details: 320 g/ha, visual score after 3 weeks vs untreated controls
Description: as §1

[6] = system: Veronica persica; test: as above; details: 320 g/ha, visual score after 3 weeks vs untreated controls
Description: as §1

[7] = system: Viola tricolor; test: as above; details: 320 g/ha, visual score after 3 weeks vs untreated controls
Description: as §1

[8] = system: Abutilon theophrasti; test: Post-emergence herbicidal action against harmful plants; details: 80 g/ha, visual score after about 3 weeks vs untreated controls
Method: (§2) Seeds of monocotyledonous and dicotyledonous weed and crop plants are laid out in sandy loam in wood-fiber pots, covered with soil and cultivated in a greenhouse under good growth conditions. 2 to 3 weeks after sowing, the trial plants are treated at the one-leaf stage. The compounds of the invention, formulated in the form of wettable powders (WP) or as emulsion concentrates (EC), are then sprayed onto the green parts of the plants in the form of an aqueous suspension or emulsion at a water application rate equating to 600 to 800 I/ha, with addition of 0.2% wetting agent. After the trial plants have been left to stand in a greenhouse under optimal growth conditions for about 3 weeks, the efficacy of the formulations is scored visually in comparison to untreated controls (herbicidal action in percent (%): 100% efficacy=the plants have died, 0% efficacy=like control plants). In this trial, for example, compound no.

[9] = system: Ipomoea purpurea; test: as above; details: 80 g/ha, visual score after about 3 weeks vs untreated controls
Method: as §2

[10] = system: Stellaria media; test: as above; details: 80 g/ha, visual score after about 3 weeks vs untreated controls
Method: as §2

[11] = system: Veronica persica; test: as above; details: 80 g/ha, visual score after about 3 weeks vs untreated controls
Method: as §2

[12] = system: Viola tricolor; test: as above; details: 80 g/ha, visual score after about 3 weeks vs untreated controls
Method: as §2

Cn1ncc(-c2ccc(C(F)(F)F)c(=O)n2C)c(O)c1=O [1-4, 4-hydroxy-2-methyl-5-(1-methyl-3-(trifluoromethyl)pyrid-2-on-6-yl)-pyridazin-3-one]
at least 80%: herbicidal activity in percent (efficacy) [1] | herbicidal activity in percent (efficacy) [2] | herbicidal activity in percent (efficacy) [3] | herbicidal activity in percent (efficacy) [4] | herbicidal activity in percent (efficacy) [5] | herbicidal activity in percent (efficacy) [6] | herbicidal activity in percent (efficacy) [7] | herbicidal action in percent (efficacy) [8] | herbicidal action in percent (efficacy) [9] | herbicidal action in percent (efficacy) [10] | herbicidal action in percent (efficacy) [11] | herbicidal action in percent (efficacy) [12]
